From patent US12486218B2, “Compounds advantageous in the treatment of central nervous system diseases and disorders” (AurimMed Pharma, Inc., priority 2008, dated 2025)
Each block holds one compound with its values, some of them ahead of it.

What was measured:
in vivo = settings: mouse, ip
[1] = system: type II SMA fibroblasts (GM03813); test: SMN protein localization, gem counting in type II SMA fibroblasts; format: cell-based; settings: 100 nM-10 μM, 5 days
Description: To validate the SMN2 promoter and exon 7 screens, the effects of compounds H, H (acid form), AY, F, BX, and BY were evaluated on the basis of expression and localization of SMN protein in type II SMA fibroblasts (GM03813). In a normal cell, SMN protein localized within the nucleus to discreet foci known as gems. In SMN-deficient SMA cells, the number of gems is greatly diminished. Although the function of gems is unknown, it is believed that they are somehow involved in the snRNP assembly function of SMN. Gem counting can, therefore, be considered an assay for SMN function.
GM03813 fibroblasts were treated with different doses (100 nM-10 μM) of compounds H, H (acid form), AY, F, BX, and BY for 5 days. SMN immunostaining was then completed on these cells and the number of gems was counted in 100 randomly-selected nuclei. […] In fact, the gem counts at the highest dose of compound H approach those observed for carrier fibroblasts (GM03814). When compared against treatment with 1 μM D157495—a D156844 derivative, all of the compounds tested performed as well as or, even better than D157495.

mice [2] = test: 6 Hz (minimal clonic seizure) model, mice i.p.; format: in vivo; settings: mice i.p.
mice [3] = test: Mouse formalin pain model; format: in vivo; settings: 76 mg/kg i.p., at 0.5 hours
[4] = system: rat dopaminergic N27 cells; test: N27 protection assay against oxidative stress (H2O2 or MPP+; MTT and LDH); format: cell-based; settings: drug 24 hours before 200 μM H2O2 or 640 μM MPP+
Source text: FIGS. 20A-25D data are shown illustrating neuroprotective and neuroregenerative effects observed in rat dopaminergic N27 cells. Rat dopaminergic N27 cells are commonly used in in vitro and in vivo model systems for studying Parkinson's disease. Parkinson's disease is a neurodegenerative disorder of the central nervous system that affects more than 6 million people worldwide. The motor symptoms of Parkinson's disease result from the death of dopamine generating cells in the substantia nigra, a region of the midbrain.
The N27 rat dopaminergic neuron cell line was harvested from E12 rat mesencephalic tissue and was transfected with SV40 to immortalize the cell line. The N27 cell line, when injected into the striata of 6-hydroxydopamine-lesioned rats (an animal model of PD) caused a time-dependent improvement in neurological deficits. This immortalized cell line has been carefully characterized in studies of dopamine biosynthesis, neurotoxicity and used as a dopaminergic neuron model studies.
The N27 in vitro Parkinson's disease model included a test of cell viability and cell toxicity in response to exposure to oxidative stress (e.g., either 200 μM H2O2 or 640 μM MPP+).
Cell viability was tested using the MTT assay. The MTT assay is a colorimetric analysis based on the activities of mitochondrial NAD(P)H-dependent cellular oxidoreductase enzymes. These enzymes are capable of reducing the tetrazolium dye, MTT [3-(4,5-dimethylthiazol-2-yl)-2,5-diphenyltetrazolium] bromide, to an insoluble formazan (purple). […] More viable cells equal more accumulation of the insoluble formazan dye.
Cell toxicity was tested using the […] (LDH) assay. Cells that are stressed secrete LDH. In general, the more cells are stressed, the LDH they secrete into their media. The LDH assay is a reliable colorimetric assay to measure quantitatively the […] (LDH) that is released into the cell culture media from damaged cells as a biomarker for cytotoxicity and cytolysis.
FIGS. 20A-25D present data from two types of assays: protection and recovery assays. In the protection assays, the drug candidate was applied to the cells at various concentrations for 24 hours, followed by the exposure to oxidative stress (either 200 μM H2O2 or 640 μM MPP+) for measuring neuroprotective effect. H2O2 provides a broad measure of oxidative stress, while MPP+ gives a more specific oxidative stress to dopaminergic neurons.
The protection assay results are shown in panels A-C of FIGS. 20-25 In the recovery assays, the cells were first damaged by exposure to H2O2 and then various concentrations of the drug were applied to the cells. The results for the recovery assays are shown the D panels of FIGS. 20-25.

mice [5] = test: Maximal Electroshock Seizure (MES) test, mice i.p.; format: in vivo; settings: for MES, fraction of animals: mice i.p.; for activity in the MES test: mice, at 100 mg/kg
mice [6] = test: Effects observed in mice after i.p. injection (CNS stimulation, diarrhea); format: in vivo
Description: In addition, two further tertiary amide compounds, BJ and BT, produced diarrhea in the mice 30 minutes after i.p. injection of 100 mg/kg of each.

rats = test: MES test, rats p.o.; format: in vivo; settings: at 30 mg/kg
mice [7] = test: Subcutaneous Metrazol Seizure threshold (s.c. MET) test, mice i.p.; format: in vivo; settings: mice; at 300 mg/kg
SMN2 promoter = SMN2 promoter β-lactamase reporter assay in NSC34 motor neuron-like cells; format: cell-based; settings: treatment for 19 hours at a concentration of 1 μM
Description: FIG. 30 illustrates a screen for SMN2 expression of a number of compounds described herein.
SMN2 promoter activity was measured using NSC34 motor neuron-like cells stably transfected with a β-lactamase (BLA) reporter gene under the control of a 3.4-kilobase fragment of the SMN2 promoter. D156844 was used as a positive control for this assay.

Structure (SMILES): C[C@@H](CC(N)=O)c1ccc(OC(F)(F)F)cc1 (single isomer, unassigned) [BY, S-(+)-3-(4-Trifluoromethoxy-phenyl)butyramide]
- TD50 at 0.25 hr (in vivo): 104 mg/kg
- gem counts (SMN immunostaining, 100 nuclei) [1]: increase gem counts in a dose-dependent manner
- 6 Hz (32 mA), fraction of animals (mice [2]; 100 mg/kg @ 0.25 hr): 1/4
- 6 Hz (32 mA), fraction of animals (mice [2]; 100 mg/kg @ 0.5 hr): 2/4
- pain response, acute phase (mice [3]): 53 % of the control
- pain response, inflammatory phase (mice [3]): 24 % of the control
- neuroprotective effect against H2O2 and MPP+ oxidative stresses (MTT and LDH assays) [4]: potent dose-dependent neuroprotective effects

- CNS-stimulating effect observed (mice [6]; mice, 300 mg/kg i.p., 30 minutes after injection): tremors
Structure (SMILES): CCN(C)C(=O)CC(C)c1ccc(OC(F)(F)F)cc1 (centres unmarked) [BE, N-Ethyl-N-methyl-3-(4-trifluoromethoxy-phenyl)-butyramide]
- MES, fraction of animals (mice [5]; 100 mg/kg @ 0.5 hr): 1/3 @
- activity in the MES test (mice [5]): activity
- 6 Hz (32 mA), fraction of animals (mice [2]; 100 mg/kg @ 0.5 hr): 2/4 @ 0.5 hr,
- activity in the MES test (rats): activity

- CNS-stimulating effect observed (mice [6]; mice, on injection): vocalization and hyperactivity
- duration of vocalization and hyperactivity (mice [6]; mice, on injection): 5 to 6 min
Structure (SMILES): CC(CC(=O)N1CCCCC1)c1ccc(OC(F)(F)F)cc1 (centres unmarked) [BH, 1-Piperidin-1-yl-3-(4-trifluoromethoxy-phenyl)-butan-1-one]
- activity in the s.c. MET test (mice [7]): activity
- SMN2 promoter activity (SMN2 promoter): increased SMN2 promoter activity

- effect produced in the mice (mice [6]; 30 minutes after i.p. injection of 100 mg/kg): diarrhea
Structure (SMILES): CC(CC(=O)N1CCN(C)CC1)c1ccc(OC(F)(F)F)cc1.Cl (centres unmarked) [BJ, 1-(4-Methyl-piperazin-1-yl)-3-(4-trifluoromethoxy-phenyl)-butan-1-one hydrochloride]
- MES, fraction of animals (mice [5]; 100 mg/kg @ 0.25 hr): 2/3 @
- activity in the MES test (mice [5]): activity
- activity in the MES test (rats): activity
